Measurements published in patent US20220242870A1, “HETEROCYCLE-FUSED PYRIMIDINE DERIVATIVE AND USE THEREOF” (VORONOI Inc., priority 2019, published 2022).
pIC50: −log10 of the molar value. Blank lines part the entries; values can stand above or below the compound they belong to.

What was measured:
human FLT3-ITD enzyme = biological target: T1, human FLT3-ITD enzyme (Homo sapiens, UniProt P36888); experiment: FLT3 enzyme inhibitory ability (ADP-Glo kinase assay); type: biochemical; settings: human FLT3-ITD enzyme 10 ng, ATP 10 μM, 25° C. 1 hour
T1 sequence (P36888 1-993): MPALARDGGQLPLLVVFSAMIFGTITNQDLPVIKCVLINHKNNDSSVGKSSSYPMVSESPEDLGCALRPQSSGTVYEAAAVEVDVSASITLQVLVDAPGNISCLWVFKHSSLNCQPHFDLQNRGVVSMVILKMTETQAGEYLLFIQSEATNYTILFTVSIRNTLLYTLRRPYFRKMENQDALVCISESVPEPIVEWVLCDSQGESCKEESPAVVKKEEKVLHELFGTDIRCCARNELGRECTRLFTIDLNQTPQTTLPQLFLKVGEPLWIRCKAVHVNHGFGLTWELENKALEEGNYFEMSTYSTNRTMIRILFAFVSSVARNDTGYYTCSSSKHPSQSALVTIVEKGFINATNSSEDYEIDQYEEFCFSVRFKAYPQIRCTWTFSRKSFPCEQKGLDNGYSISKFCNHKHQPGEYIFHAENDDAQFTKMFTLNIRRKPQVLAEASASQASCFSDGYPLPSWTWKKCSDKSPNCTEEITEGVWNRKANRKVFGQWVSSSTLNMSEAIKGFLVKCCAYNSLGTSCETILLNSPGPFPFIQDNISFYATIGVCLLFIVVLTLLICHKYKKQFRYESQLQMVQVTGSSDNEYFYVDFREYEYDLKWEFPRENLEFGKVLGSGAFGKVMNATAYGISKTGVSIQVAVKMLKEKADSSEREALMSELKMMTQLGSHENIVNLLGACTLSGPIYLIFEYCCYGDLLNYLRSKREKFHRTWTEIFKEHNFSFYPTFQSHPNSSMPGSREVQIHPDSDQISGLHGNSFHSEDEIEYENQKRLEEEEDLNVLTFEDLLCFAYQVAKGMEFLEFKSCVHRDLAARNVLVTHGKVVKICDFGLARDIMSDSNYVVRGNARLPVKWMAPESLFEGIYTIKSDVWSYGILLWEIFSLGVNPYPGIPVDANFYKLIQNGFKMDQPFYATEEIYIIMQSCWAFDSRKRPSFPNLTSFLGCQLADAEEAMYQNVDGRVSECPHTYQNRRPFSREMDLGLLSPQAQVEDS
Procedure, shortened: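 Purified human FLT3-ITD (10 ng) with 10 μM ATP and specific substrate in 40 mM Tris-HCl pH 7.4, 20 mM MgCl2, 0.5 mg/mL BSA, 50 μM DTT, 1 h at 25 °C. ADP formation read by ADP-Glo luminescence; IC50 (nM) versus solvent-treated control.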

MCF-7 cells = experiment: Breast cancer cell line proliferation inhibitory activity (CellTiter-Glo 2.0); type: cell-based; settings: Homo sapiens, MCF7, 120 hours
Procedure, shortened: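 MCF-7 cells exposed to a 12-point, 3-fold dilution series (final 0.00005–10 μM) for 120 h at 37 °C. Viability read by CellTiter-Glo 2.0 luminescence, expressed as percent of vehicle-treated cells. GI50 (nM) derived from the curves.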

human GST-HPK1 (1-346) = biological target: T2, human GST-HPK1 (1-346) (Homo sapiens, UniProt Q92918); experiment: HPK1 enzyme inhibitory ability (ADP-Glo kinase assay); type: biochemical; settings: human GST-HPK1 3 ng, ATP 3 uM, 25° C. 2 hours
T2 construct: purified human GST-HPK1 (1-346, Signalchem) enzyme; purchased Signalchem
T2 sequence (Q92918 1-346): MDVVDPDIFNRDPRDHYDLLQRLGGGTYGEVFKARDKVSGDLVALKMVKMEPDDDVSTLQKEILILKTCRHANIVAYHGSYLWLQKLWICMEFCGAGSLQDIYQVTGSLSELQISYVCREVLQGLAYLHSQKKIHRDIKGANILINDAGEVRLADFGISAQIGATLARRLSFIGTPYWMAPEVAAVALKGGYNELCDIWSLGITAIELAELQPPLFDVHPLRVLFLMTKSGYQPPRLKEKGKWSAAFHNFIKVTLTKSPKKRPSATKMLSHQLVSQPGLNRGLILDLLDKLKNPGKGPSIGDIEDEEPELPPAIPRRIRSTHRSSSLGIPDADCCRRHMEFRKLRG
Procedure, shortened: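 Human GST-HPK1(1-346), 3 ng, reacted with 3 uM ATP and specific substrate in 40 mM Tris-HCl pH 7.4, 20 mM MgCl2, 0.5 mg/mL BSA, 50 uM DTT for 2 h at 25° C. ADP-Glo luminescence read; IC50 (nM) relative to untreated solvent control.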

MV4-11 cells = experiment: AML cell proliferation inhibitory activity (CellTiter-Glo); type: cell-based; settings: Homo sapiens, 72 hours
Procedure: The inhibitory activities of the example compounds according to the present invention on the proliferation of acute myeloid leukemia (AML) cells expressing the FLT3 mutant gene were evaluated. Specifically, RS4;11 and MV4-11 cells as acute myeloid leukemia cells expressing the FLT3 mutant gene were cultured in RPMI-1640 (Invitrogen) adding 10% FBS. The cells were seeded into each well of a clear bottom white 96-well plate (Corning) at 3000 to 5000 cells 24 hours before compound treatment. The compound was diluted in DMSO (diluted each three-fold, to a total of 12 concentrations) and injected at 0.5 μL each so as to be a final concentration of 0.3 nM to 50 μM. After 72 hours of the compound treatment, they were treated with CellTiter-Glo Luminescent Cell Viability assay (Promega) and stored at room temperature for 10 minutes, and luminescence intensities were measured with a reader (SynergyNeo, Biotek) to count viable cells. Each experiment was performed three times repeatedly. The result values were calculated as the cell growth rate (%) compared to the control treated with the solvent. The graph was derived using the GraphPad Prism program (version 5.0), the GI50 (nM) values were calculated, and the results were shown in Table 3 below.

Compound: CCc1cc(Nc2nc(N3N=CCC3c3ccccc3)c3sccc3n2)cc(OCCN2CCC(O)CC2)c1 (stereo not shown) [Example 16, 1-(2-(3-ethyl-5-((4-(5-phenyl-4,5-dihydro-1H-pyrazol-1-yl)thieno[3,2-d]pyrimidin-2-yl)amino)phenoxy)ethyl)piperidin-4-ol]
- pIC50 (human FLT3-ITD enzyme): < 6.30
- GI50 (MCF-7 cells): > 500 nM
- pIC50 (human GST-HPK1 (1-346)): < 6.30
- GI50 (MV4-11 cells): > 500 nM

Compound: COc1cc(Nc2nc(N3OCC[C@H]3c3ccccc3)c3sccc3n2)ccc1N1CCC(N2CCN(C)CC2)CC1 [Example 57, (S)-N-(3-methoxy-4-(4-(4-methylpiperazin-1-yl)piperidin-1-yl)phenyl)-4-(3-phenylisoxazolidin-2-yl)thieno[3,2-d]pyrimidin-2-amine]
- pIC50 (human FLT3-ITD enzyme): 6.30 to 6.60
- GI50 (MCF-7 cells): > 500 nM
- pIC50 (human GST-HPK1 (1-346)): < 6.30
- GI50 (MV4-11 cells): > 500 nM

Compound: COc1cc(Nc2nc(N3N=CCC3c3ccccc3)c3cc[nH]c3n2)ccc1N1CCC(N2CCN(C)CC2)CC1 (stereo not shown) [Example 69, N-(3-methoxy-4-(4-(4-methylpiperazin-1-yl)piperidin-1-yl)phenyl)-4-(5-phenyl-4,5-dihydro-1H-pyrazol-1-yl)-7H-pyrrolo[2,3-d]pyrimidin-2-amine]
- pIC50 (human FLT3-ITD enzyme): 6.30 to 6.60
- GI50 (MCF-7 cells): > 500 nM
- pIC50 (human GST-HPK1 (1-346)): < 6.30
- GI50 (MV4-11 cells): > 500 nM

Compound: COc1cc(Nc2nc(N3OCC[C@H]3c3ccccc3)c3cc[nH]c3n2)ccc1N1CCC(N2CCN(C)CC2)CC1 [Example 87, (S)-N-(3-methoxy-4-(4-(4-methylpiperazin-1-yl)piperidin-1-yl)phenyl)-4-(3-phenylisoxazolidin-2-yl)-7H-pyrrolo[2,3-d]pyrimidin-2-amine]
- pIC50 (human FLT3-ITD enzyme): 6.30 to 6.60
- GI50 (MCF-7 cells): > 500 nM
- pIC50 (human GST-HPK1 (1-346)): ≤ 6.60
- GI50 (MV4-11 cells): ≥ 250 nM

Compound: OCCN1CCN(C2CCN(c3ccc(Nc4nc(N5OCC[C@H]5c5ccccc5)c5cc[nH]c5n4)cc3)CC2)CC1 [Example 89, (S)-2-(4-(1-(4-((4-(3-phenylisoxazolidin-2-yl)-7H-pyrrolo[2,3-d]pyrimidin-2-yl)amino)phenyl)piperidin-4-yl)piperazin-1-yl)ethan-1-ol]
- pIC50 (human FLT3-ITD enzyme): 6.30 to 6.60
- GI50 (MCF-7 cells): > 500 nM
- pIC50 (human GST-HPK1 (1-346)): ≤ 6.60
- GI50 (MV4-11 cells): 250 to 500 nM

Compound: COc1cc(C(=O)N2CCOCC2)ccc1Nc1nc(N2OCC[C@H]2c2ccccc2)c2cc[nH]c2n1 [Example 96, (S)-(3-methoxy-4-((4-(3-phenylisoxazolidin-2-yl)-7H-pyrrolo[2,3-d]pyrimidin-2-yl)amino)phenyl)(morpholino)methanone]
- pIC50 (human FLT3-ITD enzyme): ≤ 6.60
- GI50 (MCF-7 cells): > 500 nM
- pIC50 (human GST-HPK1 (1-346)): < 6.30
- GI50 (MV4-11 cells): > 500 nM

Compound: CCN(CC)CCCOc1c(C)cc(Nc2nc(N3OCC[C@H]3c3ccccc3)c3cc[nH]c3n2)cc1C [Example 101, (S)-N-(4-(3-(diethylamino)propoxy)-3,5-dimethylphenyl)-4-(3-phenylisoxazolidin-2-yl)-7H-pyrrolo[2,3-d]pyrimidin-2-amine]
- pIC50 (human FLT3-ITD enzyme): ≤ 6.60
- GI50 (MCF-7 cells): > 500 nM
- pIC50 (human GST-HPK1 (1-346)): ≤ 6.60
- GI50 (MV4-11 cells): > 500 nM

Compound: c1ccc([C@@H]2CCON2c2nc(Nc3ccc4c(c3)CNCC4)nc3[nH]ccc23)cc1 [Example 104, (S)-N-(4-(3-phenylisoxazolidin-2-yl)-7H-pyrrolo[2,3-d]pyrimidin-2-yl)-1,2,3,4-tetrahydroisoquinolin-7-amine]
- pIC50 (human FLT3-ITD enzyme): ≤ 6.60
- GI50 (MCF-7 cells): > 500 nM
- pIC50 (human GST-HPK1 (1-346)): ≤ 6.60
- GI50 (MV4-11 cells): > 500 nM

Compound: CN1CCc2ccc(Nc3nc(N4OCC[C@H]4c4ccccc4)c4cc[nH]c4n3)cc2C1 [Example 105, (S)-2-methyl-N-(4-(3-phenylisoxazolidin-2-yl)-7H-pyrrolo[2,3-d]pyrimidin-2-yl)-1,2,3,4-tetrahydroisoquinolin-7-amine]
- pIC50 (human FLT3-ITD enzyme): ≤ 6.60
- GI50 (MCF-7 cells): > 500 nM
- pIC50 (human GST-HPK1 (1-346)): ≤ 6.60
- GI50 (MV4-11 cells): 250 to 500 nM

Results, then the compound that gave them:

- pIC50 (human FLT3-ITD enzyme): ≤ 6.60
- GI50 (MCF-7 cells): > 500 nM
- pIC50 (human GST-HPK1 (1-346)): < 6.30
- GI50 (MV4-11 cells): > 500 nM
Compound: CN1CCN(c2ccc(Nc3nc(N4OCC[C@H]4c4ccccc4)c4sccc4n3)cc2)CC1 [Example 59, (S)-N-(4-(4-methylpiperazin-1-yl)phenyl)-4-(3-phenylisoxazolidin-2-yl)thieno[3,2-d]pyrimidin-2-amine]

- pIC50 (human FLT3-ITD enzyme): 6.30 to 6.60
- GI50 (MCF-7 cells): > 500 nM
- pIC50 (human GST-HPK1 (1-346)): < 6.30
- GI50 (MV4-11 cells): > 500 nM
Compound: COc1cccc([C@@H]2CCON2c2nc(Nc3ccc(N4CCN(C)CC4)cc3)nc3[nH]ccc23)c1 [Example 75, (S)-4-(3-(3-methoxyphenyl)isoxazolidin-2-yl)-N-(4-(4-methylpiperazin-1-yl)phenyl)-7H-pyrrolo[2,3-d]pyrimidin-2-amine]

- pIC50 (human FLT3-ITD enzyme): ≤ 6.60
- GI50 (MCF-7 cells): > 500 nM
- pIC50 (human GST-HPK1 (1-346)): ≤ 6.60
- GI50 (MV4-11 cells): > 500 nM
Compound: CN1CCN(c2ccc(Nc3nc(N4OCC[C@H]4c4cccc(F)c4)c4cc[nH]c4n3)cc2)CC1 [Example 76, (S)-4-(3-(3-fluorophenyl)isoxazolidin-2-yl)-N-(4-(4-methylpiperazin-1-yl)phenyl)-7H-pyrrolo[2,3-d]pyrimidin-2-amine]

- pIC50 (human FLT3-ITD enzyme): ≤ 6.60
- GI50 (MCF-7 cells): > 500 nM
- pIC50 (human GST-HPK1 (1-346)): ≤ 6.60
- GI50 (MV4-11 cells): 250 to 500 nM
Compound: CN1CCN(c2ccc(Nc3nc(N4OCC[C@H]4c4cccs4)c4cc[nH]c4n3)cc2)CC1 [Example 77, (S)-N-(4-(4-methylpiperazin-1-yl)phenyl)-4-(3-(thiophen-2-yl)isoxazolidin-2-yl)-7H-pyrrolo[2,3-d]pyrimidin-2-amine]

- pIC50 (human FLT3-ITD enzyme): ≤ 6.60
- GI50 (MCF-7 cells): > 500 nM
- pIC50 (human GST-HPK1 (1-346)): ≤ 6.60
- GI50 (MV4-11 cells): > 500 nM
Compound: CN1CCN(c2ccc(Nc3nc(N4OCC[C@H]4c4cccnc4)c4cc[nH]c4n3)cc2)CC1 [Example 78, (S)-N-(4-(4-methylpiperazin-1-yl)phenyl)-4-(3-(pyridin-3-yl)isoxazolidin-2-yl)-7H-pyrrolo[2,3-d]pyrimidin-2-amine]

- pIC50 (human FLT3-ITD enzyme): ≤ 6.60
- GI50 (MCF-7 cells): > 500 nM
- pIC50 (human GST-HPK1 (1-346)): ≤ 6.60
- GI50 (MV4-11 cells): ≥ 250 nM
Compound: CN(C)C1CCN(c2ccc(Nc3nc(N4OCC[C@H]4c4ccccc4)c4cc[nH]c4n3)cc2)CC1 [Example 83, (S)-N-(4-(4-(dimethylamino)piperidin-1-yl)phenyl)-4-(3-phenylisoxazolidin-2-yl)-7H-pyrrolo[2,3-d]pyrimidin-2-amine]

- pIC50 (human FLT3-ITD enzyme): ≤ 6.60
- GI50 (MCF-7 cells): > 500 nM
- pIC50 (human GST-HPK1 (1-346)): ≤ 6.60
- GI50 (MV4-11 cells): ≥ 250 nM
Compound: CN1CCc2cc(Nc3nc(N4OCC[C@H]4c4ccccc4)c4cc[nH]c4n3)ccc2C1 [Example 109, (S)-2-methyl-N-(4-(3-phenylisoxazolidin-2-yl)-7H-pyrrolo[2,3-d]pyrimidin-2-yl)-1,2,3,4-tetrahydroisoquinolin-6-amine]
